Test results as given in patent US20240058343A1, “TREATMENT OF URTICARIA USING JAK INHIBITORS” (Incyte Corporation, priority 2022, published 2024).

Key:
[1] = biological target: JAK2 (a.a. 828-1132) (Homo sapiens (Human), UniProt O60674); assay: In vitro JAK kinase assay (HTRF), JAK2, for JAK2/JAK1 ratio; format: biochemical; conditions: IC50 ratio at 1 mM ATP
Description: (§1) The catalytic activity of JAK1, JAK2 or JAK3 was assayed by measuring the phosphorylation of a biotinylated peptide. The phosphorylated peptide was detected by homogenous time resolved fluorescence (HTRF). IC5os of compounds are measured for each kinase in the 40 microL reactions that contain the enzyme, ATP and 500 nM peptide in 50 mM Tris (pH 7.8) buffer with 100 mM NaCl, 5 mM DTT, and 0.1 mg/mL (0.01%) BSA. […] Reactions are carried out at room temperature for 1 hour and then stopped with 20 μL 45 mM EDTA, 300 nM SA-APC, 6 nM Eu-Py20 in assay buffer (Perkin Elmer, Boston, MA). Binding to the Europium labeled antibody takes place for 40 minutes and HTRF signal was measured on a Fusion plate reader (Perkin Elmer, Boston, MA).

[2] = biological target: human JAK1 (a.a. 837-1142) (Homo sapiens, UniProt P23458); assay: In vitro JAK kinase assay (HTRF), JAK1; format: biochemical; conditions: 1 mM ATP
Description: as §1

JAK2 (a.a. 828-1132), sequence (O60674 828-1132): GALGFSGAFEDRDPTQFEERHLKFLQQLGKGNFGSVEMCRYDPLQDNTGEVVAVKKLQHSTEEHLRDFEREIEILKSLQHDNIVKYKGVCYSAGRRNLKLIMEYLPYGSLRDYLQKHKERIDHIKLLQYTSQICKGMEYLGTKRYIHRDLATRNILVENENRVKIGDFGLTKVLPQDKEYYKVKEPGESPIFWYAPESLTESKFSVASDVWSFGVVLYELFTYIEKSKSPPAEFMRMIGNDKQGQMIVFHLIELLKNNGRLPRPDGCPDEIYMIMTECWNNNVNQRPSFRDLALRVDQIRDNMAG

SMILES	JAK2/JAK1 [1]	IC50 [2] [µM]
N#CCC(C1CCN(c2cccc(Cl)n2)C1)n1cc(-c2ncnc3[nH]ccc23)cn1 (single isomer, unassigned) [compound 6, 3-[1-(6-chloropyridin-2-yl)pyrrolidin-3-yl]-3-[4-(7H-pyrrolo[2,3-d]pyrimidin-4-yl)-1H-pyrazol-1-yl]propanenitrile]	>10	< 0.01
N#CCC1(n2cc(-c3ncnc4[nH]ccc34)cn2)CN(C2CCN(C(=O)Nc3ccc(F)cc3C(F)(F)F)CC2)C1 [compound 2, 4-{3-(Cyanomethyl)-3-[4-(7H-pyrrolo[2,3-d]pyrimidin-4-yl)-1H-pyrazol-1-yl]azetidin-1-yl}-N-[4-fluoro-2-(trifluoromethyl)phenyl] piperidine-1-carboxamide]	>10	< 0.01
N#CCC1(n2cc(-c3ncnc4[nH]ccc34)cn2)CN(C2CCN(C(=O)c3ccnc(C(F)(F)F)n3)CC2)C1 [compound 3, [3-[4-(7H-pyrrolo[2,3-d]pyrimidin-4-yl)-1H-pyrazol-1-yl]-1-(1-{[2-(trifluoromethyl)pyrimi-din-4-yl]carbonyl}piperidin-4-yl)azetidin-3-yl]acetonitrile]	>10	< 0.01
C[C@@H](O)c1nc2cnc3ccsc3c2n1[C@H]1CC[C@H](CC#N)OC1 [compound 5, ((2R,5S)-5-{2-[(1R)-1-hydroxyethyl]-1H-imidazo[4,5-d]thieno[3,2-b]pyridin-1-yl}tetrahydro-2H-pyran-2-yl)acetonitrile]	>10	< 0.1
N#CCC(C1CCN(c2nc3cccnc3o2)C1)n1cc(-c2ncnc3[nH]ccc23)cn1 (stereo not shown) [compound 7, 3-(1-[1,3]oxazolo[5,4-b]pyridin-2-ylpyrrolidin-3-yl)-3-[4-(7H-pyrrolo[2,3-d]pyrimidin-4-yl)-1H-pyrazol-1-yl]propanenitrile]	>10	< 0.01
N#CCC(CN1CCN(C(=O)c2ccc(C#N)cc2F)CC1)n1cc(-c2ncnc3[nH]ccc23)cn1 (stereo not shown) [compound 8, 4-[(4-{3-cyano-2-[4-(7H-pyrrolo[2,3-d]pyrimidin-4-yl)-1H-pyrazol-1-yl]propyl}piperazin-1-yl)carbanoyl]-3-fluorobenzonitrile]	>10	< 0.01
N#CCC(CN1CCN(C(=O)c2ccc(C#N)cc2F)CC1)n1ccc(-c2ncnc3[nH]ccc23)c1 (stereo not shown) [compound 9, 4-[(4-{3-cyano-2-[3-(7H-pyrrolo[2,3-d]pyrimidin-4-yl)-1H-pyrrol-1-yl]propyl}piperazin-1-yl)carbonyl]-3-fluorobenzonitrile]	>10	< 0.01
N#CC[C@]1(n2cc(-c3ncnc4[nH]ccc34)cn2)C[C@H](N2CCN(C(=O)c3ccnc(C(F)(F)F)n3)CC2)C1 [compound 10, [trans-1-[4-(7H-pyrrolo[2,3-d]pyrimidin-4-yl)-1H-pyrazol-1-yl]-3-(4-{[2-(trifluoromethyl)pyrimi-din-4-yl]carbonyl}piperazin-1-yl)cyclobutyl]acetonitrile]	>10	< 0.01
C[C@H](NC(=O)c1cc(F)c(N2CC(CC#N)(n3cc(-c4ncnc5[nH]ccc45)cn3)C2)cc1F)C(F)(F)F [compound 16, 4-{3-(cyanomethyl)-3-[4-(7H-pyrrolo[2,3-d]pyrimidin-4-yl)-1H-pyrazol-1-yl]azetidin-1-yl}-2,5-difluoro-N-[(1S)-2,2,2-trifluoro-1-methylethyl)benzamide]	>10	< 0.01
N#CCC1(n2cc(-c3ncnc4[nH]ccc34)cn2)CN([C@H]2CC[C@@H](Oc3cc(CCO)nc(C(F)(F)F)n3)CC2)C1 [compound 18, {1-(cis-4-{[6-(2-hydroxyethyl)-2-(trifluoromethyl)pyrimi-din-4-yl]oxy}cyclohexyl)-3-[4-(7H-pyrrolo[2,3-d]pyrimidin-4-yl)-1H-pyrazol-1-yl]azetidin-3-yl}acetonitrile]	>10	< 0.01
CC(C)(O)c1cc(O[C@H]2CC[C@@H](N3CC(CC#N)(n4cc(-c5ncnc6[nH]ccc56)cn4)C3)CC2)nc(C(F)(F)F)c1 [compound 20, {1-(cis-4-{[4-(1-hydroxy-1-methylethyl)-6-(trifluoromethyl)pyridin-2-yl]oxy}cyclohexyl)-3-[4-(7H-pyrrolo[2,3-d]pyrimidin-4-yl)-1H-pyrazol-1-yl]azetidin-3-yl}acetonitrile]	>10	< 0.01

Results, then the molecule that gave them:

JAK2/JAK1 [1]	IC50 [2] [µM]	SMILES
>10	< 0.01	N#CC[C@]1(n2cc(-c3ncnc4[nH]ccc34)cn2)C[C@H](N2CCC(Oc3cc(CN4CC(O)C4)cc(C(F)(F)F)n3)CC2)C1 [compound 11, {trans-3-(4-{[4-[(3-hydroxyazetidin-1-yl)methyl]-6-(trifluoromethyl)pyridin-2-yl]oxy}piperidin-1-yl)-1-[4-(7H-pyrrolo[2,3-d]pyrimidin-4-yl)-1H-pyrazol-1-yl]cyclobutyl}acetonitrile]
>10	< 0.01	N#CC[C@]1(n2cc(-c3ncnc4[nH]ccc34)cn2)C[C@H](N2CCC(Oc3cc(CN4CCC[C@H]4CO)cc(C(F)(F)F)n3)CC2)C1 [compound 12, {trans-3-(4-{[4-{[(2S)-2-(hydroxymethyl)pyrroli-din-1-yl]methyl}-6-(trifluoromethyl)pyridin-2-yl]oxy}piperidin-1-yl)-1-[4-(7H-pyrrolo[2,3-d]pyrimidin-4-yl)-1H-pyrazol-1-yl]cyclobutyl}acetonitrile]
>10	< 0.01	N#CC[C@]1(n2cc(-c3ncnc4[nH]ccc34)cn2)C[C@H](N2CCC(Oc3cc(CN4CCC[C@@H]4CO)cc(C(F)(F)F)n3)CC2)C1 [compound 13, {trans-3-(4-{[4-{[(2R)-2-(hydroxymethyl)pyrroli-din-1-yl]methyl}-6-(trifluoromethyl)pyridin-2-yl]oxy}piperidin-1-yl)-1-[4-(7H-pyrrolo[2,3-d]pyrimidin-4-yl)-1H-pyrazol-1-yl]cyclobutyl}acetonitrile]
>10	< 0.01	CCNCc1cc(O[C@H]2CC[C@@H](N3CC(CC#N)(n4cc(-c5ncnc6[nH]ccc56)cn4)C3)CC2)nc(C(F)(F)F)c1 [compound 19, {1-(cis-4-{[4-[(ethylamino)methyl]-6-(trifluoromethyl)pyridin-2-yl]oxy}cyclohexyl)-3-[4-(7H-pyrrolo[2,3-d]pyrimidin-4-yl)-1H-pyrazol-1-yl]azetidin-3-yl}acetonitrile]
>10	< 0.01	N#CCC1(n2cc(-c3ncnc4[nH]ccc34)cn2)CN([C@H]2CC[C@@H](Oc3cc(CN4CC[C@@H](O)C4)cc(C(F)(F)F)n3)CC2)C1 [compound 21, {1-(cis-4-{[4-{[(3R)-3-hydroxypyrrolidin-1-yl]methyl}-6-(trifluoromethyl)pyridin-2-yl]oxy}cyclohexyl)-3-[4-(7H-pyrrolo[2,3-d]pyrimidin-4-yl)-1H-pyrazol-1-yl]azetidin-3-yl}acetonitrile]
>10	< 0.01	N#CCC1(n2cc(-c3ncnc4[nH]ccc34)cn2)CN([C@H]2CC[C@@H](Oc3cc(CN4CC[C@H](O)C4)cc(C(F)(F)F)n3)CC2)C1 [compound 22, {1-(cis-4-{[4-{[(3S)-3-hydroxypyrrolidin-1-yl]methyl}-6-(trifluoromethyl)pyridin-2-yl]oxy}cyclohexyl)-3-[4-(7H-pyrrolo[2,3-d]pyrimidin-4-yl)-1H-pyrazol-1-yl]azetidin-3-yl}acetonitrile]
